Patent US8153693B2, “Compounds for the selective treatment of the intestinal immuno-inflammatory component of the celiac disease” (Giuliani International Limited, priority 2007, dated 2012)

Test system: cytokines
Assay: Organ culture of duodenal biopsies, cytokines overall
Assay type: cell-based, human
Conditions: biopsies of celiac disease subjects versus subjects without celiac disease
Method: The biopsies were washed in saline for two minutes at least three times. The biopsies were placed in culture media having a volume equal to 1 ml: The biopsies are incubated in an O2 (95%) and CO2 (5%) atmosphere at a temperature of 37° C. for a period ranging from 4 h to 72 h. Three different amounts of medium are shared for the ELISA assay of Th1 and Th2 cytokines released in culture media.

Compound: Nc1ccc(O)c(C(=O)O)c1 [Compound 5ASA, mesalazine]
- effect of Mesalazine in culture media on the cytokines: blocks the cytokines in celiac disease subjects only
